Experimental findings from patent EP4782453A1 (Beyang Therapeutics Co., Ltd., priority 2023, dated 2025) are described below.

SMILES strings stand for the structures.

What all share (format): cell-based
In test [1] the test system is KG-1a (wild-type MLL). Nature of the test: Inhibition of proliferation of human tumor cells (Alamar Blue, 7 days), KG-1a control cell line. To be noted: 168 h, KG-1a cells (wild-type MLL, control cell line), method calls the value GI50. Put shortly:
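Suspension cells were plated, dosed the same day with a graded compound series, and incubated seven days at 37°C under 5% CO2. Growth was then measured by Alamar Blue fluorescence, and the concentration halving proliferation (GI50) was calculated relative to Day 0 and Day 7 vehicle controls.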
For orientation: The colour change of resazurin is a common sign of viable cells or microbes.

The test system of test [2] is MEIS1 gene expression. Nature of the test: Inhibition of MEIS1 gene expression in human tumor cells (qRT-PCR), MOLM-13. To be noted: MOLM-13 (carrying MLL-AF9), 48 hours of incubation, relative MEIS1 gene expression vs GAPDH. From the text: (§1) Experimental Example 3: Evaluation of Inhibitory Activity of Compounds Against MEISI Gene Expression in Human Tumor Cells
(§2) The effect of test samples on MEIS1 gene expression in vitro cultured human leukemia cells MV-4-11 (carrying MLL-AF4), MOLM-13 (carrying MLL-AF9), and OCI-AML3 (carrying NPM1c) was studied.
(§3) • Human acute lymphoblastic leukemia cells MV-4-11, purchased from American Type Culture Collection, Catalog Number: CRL-9591; • Human acute myeloid leukemia cells MOLM-13, purchased from COBIOER BIOSCIENCES CO., LTD, Catalog Number: CBP60678; • Human acute myeloid leukemia cells OCI-AML3, purchased from COBIOER BIOSCIENCES CO., LTD, Catalog Number: CBP60817; • MEIS1 Primer/Probe, purchased from IDT, Catalog Number: 40831613; and • GAPDH Primer/Probe, purchased from IDT, Catalog Number: 22214836.
(§4) MV-4-11 cells were cultured in an IMDM medium containing 10% fetal bovine serum, or MOLM-13 and OCI-AML3 cells were cultured in an RPMI-1640 medium containing 20% fetal bovine serum, each supplemented with 100 U·mL^-1 penicillin and 100 µg·mL^-1 streptomycin. These cells were cultured at 37°C with 5% CO2. The suspensions of individual cell lines were prepared in their respective media and seeded into 48-well plates at a density of 100,000 cells/well. On the day of the experiment, a compound stock solution was diluted in a 6-fold gradient using DMSO. Each gradient-diluted stock solution was then further diluted 250-fold with a complete medium to prepare a series of working solutions at different concentrations. Next, 250 µL of working solution (containing the complete medium with a 2-fold serial concentration of the test compound or a positive control compound, or containing a control complete medium) was added to each well. After 48 hours of incubation, cells from the 48-well plate were collected into 1 mL centrifuge tubes, centrifuged at 1000 rpm for 5 minutes, and the complete medium was removed. Cells were washed twice with 1 mL PBS and centrifuged to remove PBS. Total RNA was extracted using the RNeasy Mini Kit (250) (QIAGEN, 74106). The threshold cycle (Ct) value for gene expression was determined using the HiScript II U+ One Step qRT-PCR Probe Kit (Vazyme) (Vazyme, Q223-01), with 3 replicates per sample. The prepared reaction mixture was placed in an ABI 7500 real-time PCR instrument, and the reaction proceeded following the procedures below. [formula]
(§5) Next, for the relative MEIS1 gene expression, the concentration (EC50) that inhibits 50% of relative MEIS1 gene expression was calculated using GraphPad Prism 8 software.
Background: Real-time PCR tracks product formation cycle by cycle.

Test [3] relates to MEIS1 gene expression. Nature of the test: Inhibition of MEIS1 gene expression in human tumor cells (qRT-PCR), OCI-AML3. To be noted: OCI-AML-3, OCI-AML3 (carrying NPM1c), 48 hours of incubation, relative MEIS1 gene expression vs GAPDH.
Text: as §1, §2, §3, §4, §5

`CCN(C(=O)c1cc(F)ccc1-c1cc(C2CN([C@H](CCCN3CCN(CCO)CC3)C(C)C)C2)cn2c(C)ncc12)C(C)C` [Example 398, N-ethyl-5-fluoro-2-(6-{1-[(3R)-6-[4-(2-hydroxyethyl)piperazin-1-yl]-2-methylhexan-3-yl]azacyclobutan-3-yl}-3-methylimidazo[1,5-a]pyridin-8-yl)-N-(isopropyl)benzamide]: the IC50 in test [1] was over 20000 nM. The EC50 in test [2] stood at 2.6 nM; in test [3], 13 nM.
For `Cc1nc(F)c2c(-c3ccc(F)cc3C(=O)N3CCOC[C@H]3C)cc(C3CN([C@H](CCCN4CCC[C@H](O)C4)C(C)C)C3)cn12` [Example 293] the same measures were 20000 nM, 9.1 nM and 31 nM.
For `Cc1nc(F)c2c(-c3ccc(F)cc3C(=O)N3CCOC[C@H]3C)cc(C3CN([C@H](CN4CCN(C)CC4)C(C)C)C3)cn12` [Example 368-2, (3R)-4-[5-fluoro-2-(1-fluoro-3-methyl-6-{1-[(2S)-3-methyl-1-(4-methylpiperazin-1-yl)butan-2-yl]azacyclobutan-3-yl}imidazo[1,5-a]pyridin-8-yl)benzoyl]-3-methylmorpholine] the same measures were 13000 nM, 9.1 nM and 17 nM.
Take `CCN(C(=O)c1cc(F)ccc1-c1cc(C2CN([C@H](CCCN3C[C@H]4C[C@@H]3CO4)C(C)C)C2)cn2c(C)ncc12)C(C)C` [Example 379, N-ethyl-5-fluoro-2-(3-methyl-6-{1-[(3R)-2-methyl-6-[(1R,4R)-2-oxa-5-azabicyclo[2.2.1]heptan-5-yl]hexan-3-yl]azacyclobutan-3-yl}imidazo[1,5-a]pyridin-8-yl)-N-(isopropyl)benzamide]: the IC50 in test [1] was 11500 nM. Also, the values for the EC50 in test [2] and in test [3] were 2 nM and 7.5 nM, respectively.
Turning to `CCN1CCN(CCC[C@H](C(C)C)N2CC(c3cc(-c4ccc(F)cc4C(=O)N4CCOC[C@H]4C)c4cnc(C)n4c3)C2)CC1` [Example 324-2], the EC50 in test [2] stood at 1.3 nM; in test [3], 9.5 nM.
Take `CCN(C(=O)c1cc(F)ccc1-c1cc(C2CN([C@H](CCCN3CCN(C)CC3)C(C)C)C2)cn2c(C)ncc12)C(C)C` [Example 310-2, N-ethyl-5-fluoro-2-(3-methyl-6-{1-[(3R)-2-methyl-6-(4-methylpiperazin-1-yl)hexan-3-yl]azacyclobutan-3-yl}imidazo[1,5-a]pyridin-8-yl)-N-(isopropyl)benzamide]: the EC50 in test [2] worked out at 6.5 nM; in test [3], 12 nM.
For `CCN(C(=O)c1cc(F)ccc1-c1cc(C2CN([C@H](CCCN3CCN(C(C)=O)CC3)C(C)C)C2)cn2c(C)ncc12)C(C)C` [Example 311-2, 2-(6-{1-[(3R)-6-(4-acetylpiperazin-1-yl)-2-methylhexan-3-yl]azacyclobutan-3-yl}-3-methylimidazo[1,5-a]pyridin-8-yl)-N-ethyl-5-fluoro-N-(isopropyl)benzamide] the same measures were 11 nM and 23 nM.
For `CCN(C(=O)c1cc(F)ccc1-c1cc(C2CN([C@H](CCCN3CCN(C)CC3)C(C)C)C2)cn2c(C)nc(F)c12)C(C)C` [Example 312-2] the same measures were 2.5 nM and 3.9 nM.
Taken in the same sequence, the figures for `CCN(C(=O)c1cc(F)ccc1-c1cc(C2CN([C@H](CN3CCN(CCO)CC3)C(C)C)C2)cn2c(C)ncc12)C(C)C` [Example 431, N-ethyl-5-fluoro-2-(6-{1-[(2S)-1-[4-(2-hydroxylethyl)piperazin-1-yl]-3-methylbutan-2-yl]azacyclobutan-3-yl}-3methylimidazo[1,5-a]pyridin-8-yl)-N-(isopropyl)benzamide] were 4.6 nM and 33 nM.

The term IC50 denotes the concentration that inhibits the measured activity by half. What is called EC50 is the concentration giving half of the maximal effect. A higher EC50 goes with a need for much substance.
